Test results published in patent US10054581B1, “Inhibitors of notch signaling pathway and use thereof in treatment of cancers” (Ecole Polytechnique Federale de Lausanne (EPFL), priority 2011, dated 2018).
“Also recorded” adds a separate entry of the source.

Experiments:
[1] = test system: HPB ALL; assay: Annexin V apoptosis, HPB ALL; assay type: cell-based, human; conditions: 10 μM, 7 days
Description: (§1) FIGS. 6A-6D show 6-(4-Tert-Butylphenoxy)Pyridin-3-Amine (I3) induces G0/G1 cell cycle arrest and apoptosis in human T cell acute lymphoblastic leukemia cell lines and human breast cancer cell line HCC1187. […] Percentage of Annexin V positive (apoptotic) cell population was measured using flow cytometry.
(§2) To quantitate the percentage of apoptotic cells, AnnexinV and 7AAD staining was performed. Thymic cells were suspended in 300 μl of 1× AnnexinV binding buffer (BD Biosciences, San Diego, USA) and incubated with 10 μl of AnnexinV-Cy5 antibody and 10 μl of 7AAD (BD Biosciences, San Diego, USA). Samples were incubated for 15 minutes at room temperature. FACS was performed with in one hour of antibody staining.
(§3) This 6-(4-Tert-Butylphenoxy)Pyridin-3-Amine (I3) mediated proliferative arrest could be due to induction of apoptosis or cell cycle arrest during different phases of cell cycle. […] Therefore to further elucidate the mechanisms responsible for 6-(4-Tert-Butylphenoxy)Pyridin-3-Amine (I3) mediated proliferative arrest cell cycle and apoptosis analyses were carried out. […] To investigate cell death, Annexin V staining was performed and proportion of apoptotic (AnnexinV positive) cell population was determined by flow cytometry analyses after 7 days of treatment.

[2] = test system: MMTV-ErbB2 mouse mammary tumors; assay: MMTV-ErbB2 mammary tumor transplantation in FVB mice; assay type: in vivo; conditions: 25 mg/kg on alternate days, established tumors; preliminary results
Description: FIGS. 9A-9B show 6-(4-Tert-Butylphenoxy)Pyridin-3-Amine (I3) treatment blocks MMTV-ErbB2 mouse mammary tumors. […] Tubulin served as a loading control. […] Tumor formation was monitored on a regular basis. Once the tumor developed to a volume of 100-300 mm^3′ mice were treated with oil (n=2) or 25 mg/kg of 6-(4-Tert-Butylphenoxy)Pyridin-3-Amine (I3) (n=2). Tumor volume was measured every 6-7 days.
Primary MMTV-ErbB2/Neu mammary tumors were harvested from the mice and a single cell suspension was prepared. 1×10^6 primary tumor cells were suspended in 50 μl of 1×PBS and kept on ice. Three weeks old recipient FVB mice were cleared of their endogenous epithelium and tumor cells were injected into the empty fat pad. Tumor development in the recipient mice was monitored and tumor volumes were measured using digital caliper. Tumor volumes were calculated using following formula: […]length×(width)^2. Once the tumor reached a volume of about 100 mm^3, recipient mice were treated with oil or 25 mg/kg of I3 on alternate days.
In human breast cancer, high levels of Notch1 and Jagged1 proteins correlated with a poor survival of breast cancer patients. In addition, activation of Notch signalling in human breast cancer also facilitates bone and lung metastasis. […] The tumor volume was measured and recorded on regular intervals.

[3] = test system: RPMI8402; assay: Cell cycle analysis (Ki67 and Hoechst stain), RPMI8402; assay type: cell-based, human; conditions: 10 μM
Description: as §1
In addition to induction of apoptosis, the proliferative arrest observed in 6-(4-Tert-Butylphenoxy)Pyridin-3-Amine (I3) treated human leukemic cell lines and breast cancer cell line also appears to be due to cell cycle arrest in G0/G1 phase of the cell cycle. Leukemic cell lines (RPMI8402, KOPTK1 and TALL1) and breast cancer cell lines were treated with 6-(4-Tert-Butylphenoxy)Pyridin-3-Amine (I3) for 48 hours and cell cycle status was determined using Ki67 and Hoechst stain.

[4] = test system: TALL1; assay: Annexin V apoptosis, TALL1; assay type: cell-based, human; conditions: 10 μM, 7 days
Description: as §1, §2, §3

`CC(C)(C)c1ccc(Oc2ccc(N)cn2)cc1` [I3, 6-(4-Tert-Butylphenoxy)Pyridin-3-Amine] was tested, and the “apoptosis (Annexin V positive cells)” value [1] was “induces significant apoptosis”, the “tumor volume / tumor progression” value [2] was “caused significant tumor growth retardation; also recorded: exhibited a slow tumor progression compared to oil treated mice; also recorded: led to a block in tumor progression in the mice” and the cell cycle status ([3]; 48 hours) was “induces an arrest in the G0/G1 phase of the cell cycle”. The “increase in cells arrested in G0/G1 phase of the cell cycle” value ([3]; stated jointly for RPMI8402, KOPTK1 and TALL1) was 20-30% and the “apoptosis (Annexin V positive cells)” value [4] was “induces significant apoptosis”.
